Literature values, collected in patent US20150140121A1, “Compositions and Methods for Tight Junction Modulation” (Lankenau Institute for Medical Research, priority 2012, published 2015).

Experiments:
[1] = tested on: mammary epithelial barrier; conditions: selenium at supplemental concentration (e.g., 100 ng/ml); Martin et al. 2007; cited from earlier work
[2] = tested on: mammary epithelial barrier; conditions: selenium (e.g., 100 ng/ml), Martin et al. 2007; cited from earlier work
[3] = tested on: occludin; conditions: selenium (e.g., 100 ng/ml); Martin et al. 2007; cited from earlier work
[4] = tested on: ZO-1; conditions: selenium (e.g., 100 ng/ml); Martin et al. 2007; cited from earlier work
[5] = tested on: colonc epithelial (CACO-2 and HT-29/B6) cell layers; conditions: berberine 50 micromolar, Li et al. 2010, Amasheh et al. 2010; cited from earlier work
[6] = tested on: claudin-4; conditions: berberine; CACO-2 and HT-29/B6 cell layers; cited from earlier work
[7] = tested on: claudin 2; conditions: berberine; CACO-2 and HT-29/B6 cell layers; cited from earlier work
[8] = tested on: occludin; conditions: CACO-2 and HT-29/B6 cell layers, cited from earlier work
[9] = tested on: claudin 3; conditions: berberine; CACO-2 and HT-29/B6 cell layers; cited from earlier work
[10] = tested on: claudin 7; conditions: berberine; CACO-2 and HT-29/B6 cell layers; cited from earlier work
[11] = tested on: claudin-1; conditions: berberine; CACO-2 and HT-29/B6 cell layers; cited from earlier work
[12] = tested on: claudin 5; conditions: berberine; CACO-2 and HT-29/B6 cell layers; cited from earlier work

SMILES	Rt [1]	paracellular invasion of cancer cells [2]	cellular redistribution of occludin from cytosolic to junctional regions [3]	cellular redistribution of ZO-1 from cytosolic to junctional regions [4]	TJ leakiness that ensues from proinflammatory cytokine exposure [5]	amount of claudin 4 [6]	cellular amount of claudin 2 [7]	occludin redistribution that ensues from proinflammatory cytokine exposure ([8]; berberine 50 micromolar)	amount of occludin ([8]; berberine)	amount of claudin 3 [9]	amount of claudin 7 [10]	cellular amount of claudin 1 [11]	amount of claudin 5 [12]
[Se] [Selenium]	increased	decreased	cellular redistribution	cellular redistribution	–	–	–	–	–	–	–	–	–
COc1ccc2cc3[n+](cc2c1OC)CCc1cc2c(cc1-3)OCO2 [berberine]	–	–	–	–	prevents	no effect	Strong effects	prevents	no effect	no effect	no effect	Strong effects	no effect
